Laboratory results reported in the supplement of paper PMC11061612.

Experiments:
[1] = system: SNG-M (Endometrial Carcinoma); test: combination Emax (second highest fraction inhibited in the dose matrix, 72 h); higher = more inhibition; extreme values may be limits of the assay
Summary of the method: (§1)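 Bliss excess equals the observed combination effect minus the expected value EA + EB − EA·EB, where EA and EB are the effects of each agent alone. Combination Emax is the second-highest inhibition within the matrix. Inhibition was scaled from CellTiter-Glo 2.0 luminescence, with 0 set by vehicle wells and 1 by blank wells, after 72 hours of two-drug dosing of cells plated in 1536-well plates.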

[2] = system: BICR78 (Oral Cavity Carcinoma); test: as above
Summary of the method: as §1

[3] = system: WSU-DLCL2 (B-Cell Non-Hodgkin's Lymphoma); test: as above
Summary of the method: as §1

[4] = system: DOK (Oral Cavity Carcinoma); test: as above
Summary of the method: as §1

[5] = system: YT (Other Blood Carcinomas); test: as above
Summary of the method: as §1

[6] = system: HCC38 (Breast Carcinoma); test: as above
Summary of the method: as §1

[7] = system: SK-UT-1 (Other Solid Carcinomas); test: as above
Summary of the method: as §1

[8] = system: EW-22 (Ewing's Sarcoma); test: as above
Summary of the method: as §1

[9] = system: ETK-1 (Biliary Tract Carcinoma); test: as above
Summary of the method: as §1

[10] = system: HLE (Hepatocellular Carcinoma); test: as above
Summary of the method: as §1

[11] = system: P31-FUJ (Acute Myeloid Leukemia); test: as above
Summary of the method: as §1

[12] = system: TYK-nu (Ovarian Carcinoma); test: as above
Summary of the method: as §1

[13] = system: BICR78 (Oral Cavity Carcinoma); test: Bliss excess, mean over the matrix (fraction); higher = more synergy
Summary of the method: as §1

[14] = system: SK-LMS-1 (Other Solid Carcinomas); test: as above
Summary of the method: as §1

[15] = system: JHH-6 (Hepatocellular Carcinoma); test: as above
Summary of the method: as §1

[16] = system: HCT-116 (Colorectal Carcinoma); test: as above
Summary of the method: as §1

[17] = system: EKVX (Non-Small Cell Lung Carcinoma); test: as above
Summary of the method: as §1

[18] = system: MES-SA (Other Solid Carcinomas); test: combination Emax (second highest fraction inhibited in the dose matrix, 72 h); higher = more inhibition; extreme values may be limits of the assay
Summary of the method: as §1

[19] = system: 647-V (Bladder Carcinoma); test: as above
Summary of the method: as §1

[20] = system: MES-SA (Other Solid Carcinomas); test: Bliss excess, mean over the matrix (fraction); higher = more synergy
Summary of the method: as §1

SMILES	combination Emax [1]	combination Emax [2]	combination Emax [3]	combination Emax [4]	combination Emax [5]	combination Emax [6]	combination Emax [7]	combination Emax [8]	combination Emax [9]	combination Emax [10]	combination Emax [11]	combination Emax [12]	Bliss excess [13]	Bliss excess [14]	Bliss excess [15]	Bliss excess [16]	Bliss excess [17]	combination Emax [18]	combination Emax [19]	Bliss excess [20]
CCc1c2c(nc3ccc(O)cc13)-c1cc3c(c(=O)n1C2)COC(=O)[C@]3(O)CC [SN-38] + O=C(c1cc(Cc2n[nH]c(=O)c3ccccc23)ccc1F)N1CCN(C(=O)C2CC2)CC1 [Olaparib] (first compound max 0.3 µM, 7x7, partner max 10 µM)	0.62	0.786	1	0.587	0.895	0.682	0.973	0.947	0.63	0.945	0.987	0.766	0.0587	0.0057	0.032	0.104	0.0027			
CC1(C)CCC(CN2CCN(c3ccc(C(=O)NS(=O)(=O)c4ccc(NCC5CCOCC5)c([N+](=O)[O-])c4)c(Oc4cnc5[nH]ccc5c4)c3)CC2)=C(c2ccc(Cl)cc2)C1 [Venetoclax] + COc1cc(Nc2ncc3c(n2)-c2ccc(Cl)cc2C(c2c(F)cccc2OC)=NC3)ccc1C(=O)O [Alisertib] (first compound max 1 µM, 7x7, partner max 10 µM)	0.752	0.38	0.995	0.646	0.555	0.179	0.458	0.919	0.453	0.598	0.906	0.521	-0.0276	0.0215	-0.0311	-0.0043	-0.0457	0.671	0.317	-0.0225
CCN(CCO)CCCOc1ccc2c(Nc3cc(CC(=O)Nc4cccc(F)c4)[nH]n3)ncnc2c1 [AZD2811] + C=CCn1c(=O)c2cnc(Nc3ccc(N4CCN(C)CC4)cc3)nc2n1-c1cccc(C(C)(C)O)n1 [AZD1775] (first compound max 1 µM, partner max 1 µM)	0.482	0.264	0.937	0.463	0.888	0.489	0.765	0.678	0.479	0.935	0.917	0.708	0.0338	0.0502	0.0092	0.0524	-0.0599	0.767	0.491	0.0752
CCc1c2c(nc3ccc(O)cc13)-c1cc3c(c(=O)n1C2)COC(=O)[C@]3(O)CC [SN-38] + CN(C)CCCOc1ccc(-c2ccc3ncc4c(c3c2)n(C2CCOCC2)c(=O)n4C)cn1 [AZD0156] (first compound max 0.3 µM, 7x7, partner max 1 µM)	0.433	0.786	0.944	0.488	0.914	0.682	0.97	0.951	0.572	0.916	0.979	0.847	-0.0014	0.0274	-0.0159	0.0669	-0.0142	0.782	0.985	-0.0316
CCN(CCO)CCCOc1ccc2c(Nc3cc(CC(=O)Nc4cccc(F)c4)[nH]n3)ncnc2c1 [AZD2811] + O=C(c1cc(Cc2n[nH]c(=O)c3ccccc23)ccc1F)N1CCN(C(=O)C2CC2)CC1 [Olaparib] (first compound max 1 µM, 7x7, partner max 10 µM)	0.25	0.285	0.273	0.375	0.309	0.287	0.289	0.949	0.216	0.409	0.83	0.359	-0.0114	0.0076	-0.0127	-0.0109	-0.0303	0.519	0.275	0.0754
COc1cccc(OCCCN)c1-c1cc(Nc2cnc(C#N)cn2)n[nH]1 [Prexasertib] + CCc1c2c(nc3ccc(O)cc13)-c1cc3c(c(=O)n1C2)COC(=O)[C@]3(O)CC [SN-38] (first compound max 1 µM, 7x7, partner max 0.3 µM)	0.899	0.845	1	0.627	0.96	0.753	0.982	0.94	0.727	0.95	0.979	0.861	-0.0236	-0.0239	0.0337	-0.0124	-0.0347	0.762	1	-0.0714
Cc1cc2ncnn2cc1Nc1ncc2c(n1)n(C1CCOCC1)c(=O)n2C [AZD7648] + CN(C)CCCOc1ccc(-c2ccc3ncc4c(c3c2)n(C2CCOCC2)c(=O)n4C)cn1 [AZD0156] (first compound max 10 µM, 7x7, partner max 1 µM)	0.205	0.208	0.345	0.249	0.705	0.233	0.214	0.467	0.155	0.31	0.566	0.431	0.0054	0.0028	-0.0033	0.0277	0.0001	0.475	0.222	0.0228
CN(CCO)CC[C@H](CSc1ccccc1)Nc1ccc(S(=O)(=O)NC(=O)c2ccc(N3CCC([C@@H](O)c4ccccc4-c4ccc(Cl)cc4)CC3)cc2)cc1S(=O)(=O)C(F)(F)F [AZD4320] + C[C@@H]1COCCN1C2=NC(=NC(=C2)C3(CC3)[S@](=N)(=O)C)C4=C5C=CNC5=NC=C4 [AZD6738] (first compound max 1 µM, 7x7, partner max 10 µM)	0.973	0.774	0.989	0.587	0.811	0.933	0.919	1	0.675	0.871	0.994	0.803	0.0039	-0.0432	-0.023	-0.0143	-0.0458	0.691	0.816	-0.0382
C=CCn1c(=O)c2cnc(Nc3ccc(N4CCN(C)CC4)cc3)nc2n1-c1cccc(C(C)(C)O)n1 [AZD1775] + O=C(c1cc(Cc2n[nH]c(=O)c3ccccc23)ccc1F)N1CCN(C(=O)C2CC2)CC1 [Olaparib] (first compound max 1 µM, partner max 10 µM)	0.668	0.362	0.992	0.457	0.902	0.579	0.625	0.894	0.515	0.823	0.868	0.698	0.0107	0.0065	0.02	-0.0239	-0.0564	0.696	0.654	-0.0694
CC1(C)CCC(CN2CCN(c3ccc(C(=O)NS(=O)(=O)c4ccc(NCC5CCOCC5)c([N+](=O)[O-])c4)c(Oc4cnc5[nH]ccc5c4)c3)CC2)=C(c2ccc(Cl)cc2)C1 [Venetoclax] + C[C@@H]1COCCN1C2=NC(=NC(=C2)C3(CC3)[S@](=N)(=O)C)C4=C5C=CNC5=NC=C4 [AZD6738] (first compound max 1 µM, 7x7, partner max 10 µM)	0.894	0.603	0.969	0.414	0.852	0.531	0.895	0.929	0.723	0.642	0.968	0.722	-0.0397	-0.0884	-0.03	-0.0703	-0.054	0.671	0.698	0.0105
C=CCn1c(=O)c2cnc(Nc3ccc(N4CCN(C)CC4)cc3)nc2n1-c1cccc(C(C)(C)O)n1 [AZD1775] + C[C@@H]1COCCN1C2=NC(=NC(=C2)C3(CC3)[S@](=N)(=O)C)C4=C5C=CNC5=NC=C4 [AZD6738] (first compound max 1 µM, partner max 10 µM)	0.947	0.667	1	0.545	0.897	0.712	0.906	0.902	0.665	0.886	0.952	0.732		0.0039	-0.0073	0.0252	-0.0087	0.852	0.769	0.01
Cc1c2c(nn1C)CSCc1cc(n(C)n1)CSc1cc(c3ccccc3c1)OCCCc1c(C(=O)O)n(C)c3c-2c(Cl)ccc13 [AZD5991] + C[C@@H](Nc1cc(F)cc(F)c1)c1cc(C(=O)N(C)C)cc2c(=O)cc(N3CCOCC3)oc12 [AZD8186] (first compound max 1 µM, 7x7, partner max 3 µM)	0.311	0.189	1	0.459	1	0.396	0.188	0.491	0.306		0.959	0.254	-0.034	-0.0056	-0.0281	-0.0421	0.0062	0.267	0.802	-0.0381
Cc1nc(Nc2ncc(C(=O)Nc3c(C)cccc3Cl)s2)cc(N2CCN(CCO)CC2)n1 [Dasatinib] + CC(=O)Nc1cccc(-n2c(=O)n(C3CC3)c(=O)c3c(Nc4ccc(I)cc4F)n(C)c(=O)c(C)c32)c1 [Trametinib] (first compound max 2 µM, 7x7, partner max 1 µM)	0.798	0.435	0.432	0.904	0.318	0.285	0.344	0.0877	0.781	0.414	0.65	0.71	-0.0401	-0.0457	0.0847	0.0991		0.221	0.483	-0.0311
